47 compounds from the Biogen ADME set (Fang et al. 2023) can be followed below.

≈ marks a conversion by molar mass, not a printed value.

The conditions of the data set: for aqueous solubility: pH 6.8.

As to `Cc1cccc(OCCn2c(N)nc3ccccc32)c1`, the intrinsic clearance, human liver microsomes is 4.93 mL/min/kg; the intrinsic clearance, rat liver microsomes worked out at 2200 mL/min/kg; the aqueous solubility came out at 39.1 µg/mL (≈ 146 µM).
In the case of `N#Cc1ccc(C(=O)N2CCCO2)nc1`, the MDR1-MDCK efflux ratio was 0.487; the intrinsic clearance, human liver microsomes came to 37.6 mL/min/kg; the intrinsic clearance, rat liver microsomes worked out at 1020 mL/min/kg.
Regarding `N#Cc1c(N)nc(-c2ccccc2)nc1C(F)(F)F`, the aqueous solubility was found to be 0.19 µg/mL (≈ 0.719 µM).
Take `Cc1nc(C2CCNCC2)cc(N(C)C)n1`: the MDR1-MDCK efflux ratio was 4.51; the intrinsic clearance, human liver microsomes was no more than 4.74 mL/min/kg; the intrinsic clearance, rat liver microsomes was no more than 10.7 mL/min/kg; the aqueous solubility was 38.5 µg/mL (≈ 175 µM).
Regarding `Nc1c(F)ccc2cnc(-n3ccc4ccncc43)cc12`, the fraction unbound, human plasma came to 0.0517; the fraction unbound, rat plasma amounted to 0.0428; the intrinsic clearance, human liver microsomes is 368 mL/min/kg; the intrinsic clearance, rat liver microsomes was 2360 mL/min/kg.
On to `COc1ccc(-c2nc(NC(C)C)ncc2-c2ncc[nH]2)cc1`, for which the MDR1-MDCK efflux ratio turned out to be 6.39; the intrinsic clearance, human liver microsomes was 26.8 mL/min/kg; the intrinsic clearance, rat liver microsomes came out at 1160 mL/min/kg.
In turn, `O=C(CC1CCCC1)NCc1ccncc1` gave an aqueous solubility of 58 µg/mL (≈ 266 µM).
On the same count and under the same terms, next, `CS(=O)(=O)NCCc1ccc2c(c1)OCCO2`: 32.2 µg/mL (≈ 125 µM).
Turning to `O=C(CCc1ccc(Cl)cc1)N1CCCC(c2n[nH]cc2-c2cccc(F)c2)C1` (centres undefined), the MDR1-MDCK efflux ratio is 5.67; the intrinsic clearance, human liver microsomes is 930 mL/min/kg; the intrinsic clearance, rat liver microsomes turned out to be 3260 mL/min/kg; the aqueous solubility worked out at 3.9 µg/mL (≈ 9.47 µM).
For `Cc1noc(CCNc2ncnc3ccccc23)n1`, the MDR1-MDCK efflux ratio was 0.926; the intrinsic clearance, human liver microsomes is no more than 4.74 mL/min/kg; the intrinsic clearance, rat liver microsomes was determined as 94.4 mL/min/kg; the aqueous solubility was found to be 38.2 µg/mL (≈ 149 µM).
Compound `Cc1noc(C)c1N(C)CCn1cncn1` registered an intrinsic clearance, human liver microsomes of no more than 4.74 mL/min/kg and an intrinsic clearance, rat liver microsomes of 38.4 mL/min/kg.
On to `CC1(C)Cc2cc(NC(=O)c3cnn4cccnc34)c(OCC3CC3)nc2O1`, for which the MDR1-MDCK efflux ratio amounted to 0.316; the fraction unbound, human plasma came out at 0.00631; the fraction unbound, rat plasma was determined as 0.0241; the aqueous solubility amounted to 0.7 µg/mL (≈ 1.84 µM).
`NCc1cccc(C(=O)N2CCCC2)c1`: the MDR1-MDCK efflux ratio worked out at 3.58; the intrinsic clearance, human liver microsomes is no more than 4.74 mL/min/kg; the intrinsic clearance, rat liver microsomes is no more than 10.7 mL/min/kg; the aqueous solubility came out at 25.4 µg/mL (≈ 124 µM).
Taken in the same sequence, the figures for `CCNC(=O)N1CCC2(CCc3ccccc3O2)CC1` were 0.737, 6.22 mL/min/kg, 884 mL/min/kg and 66.7 µg/mL (≈ 243 µM).
For the compound `c1csc(Cc2nc(-c3cnccn3)no2)c1`, the intrinsic clearance, human liver microsomes was determined as 10.8 mL/min/kg and the intrinsic clearance, rat liver microsomes was 80.8 mL/min/kg.
On to `Cc1nccc(-c2cccc(NCC(=O)N3CCCCCCC3)c2)n1`, for which the MDR1-MDCK efflux ratio was 0.748; the intrinsic clearance, human liver microsomes came out at 302 mL/min/kg; the intrinsic clearance, rat liver microsomes worked out at 2050 mL/min/kg; the aqueous solubility turned out to be 55.6 µg/mL (≈ 164 µM).
In turn, `COc1ccc(NC(=O)CN2CCCC2)cc1` returned an intrinsic clearance, human liver microsomes of no more than 4.74 mL/min/kg and an intrinsic clearance, rat liver microsomes of 1850 mL/min/kg.
`C#Cc1cccc(N(CC(=O)NC(N)=O)Cc2cccs2)c1`: the MDR1-MDCK efflux ratio turned out to be 2.25; the intrinsic clearance, human liver microsomes came out at 38.5 mL/min/kg; the intrinsic clearance, rat liver microsomes is 1610 mL/min/kg.
As to `COc1ccc(-c2nc(CN3CCC[C@H](O)C3)no2)cc1`, the MDR1-MDCK efflux ratio was 0.841; the intrinsic clearance, human liver microsomes was determined as 11.5 mL/min/kg; the intrinsic clearance, rat liver microsomes is 48 mL/min/kg; the aqueous solubility came to 36.8 µg/mL (≈ 127 µM).
On to `Cc1cccc(NC(=O)c2ccccc2-c2ccccc2)n1`, for which the MDR1-MDCK efflux ratio was determined as 0.551; the intrinsic clearance, human liver microsomes is 64.2 mL/min/kg; the intrinsic clearance, rat liver microsomes stood at 686 mL/min/kg; the aqueous solubility turned out to be 33.1 µg/mL (≈ 115 µM).
The matching figures for `COc1ccc(C(=O)N2CCCC2)cc1NC(C)C`: 1.08, 7.82 mL/min/kg, 86.8 mL/min/kg and 35.9 µg/mL (≈ 137 µM).
The matching figures for `Cc1cc(-c2nccs2)nc(CC2CCNCC2)n1`: 20.1, no more than 4.74 mL/min/kg, 38.8 mL/min/kg and 36.5 µg/mL (≈ 133 µM).
As to `Cc1nnc(CN(C)CC(C)Oc2ccc(Cl)c(Cl)c2)n1C` (centres undefined), the MDR1-MDCK efflux ratio is 7.09; the fraction unbound, human plasma amounted to 0.0844; the fraction unbound, rat plasma turned out to be 0.13; the intrinsic clearance, human liver microsomes turned out to be 132 mL/min/kg. Moreover, the intrinsic clearance, rat liver microsomes was 1440 mL/min/kg and the aqueous solubility was 33 µg/mL (≈ 96.1 µM).
As to `CC[C@@H]1CN(c2ccc(C(=O)Nc3cn4cc(C)nc4cn3)c(F)c2)CCN1`, the MDR1-MDCK efflux ratio is 2.39.
As for `O=C(CSC1CCCC1)N1CCC(n2ccnn2)CC1`, the MDR1-MDCK efflux ratio worked out at 1.3; the intrinsic clearance, human liver microsomes is 13.2 mL/min/kg; the intrinsic clearance, rat liver microsomes worked out at 138 mL/min/kg; the aqueous solubility turned out to be 39.1 µg/mL (≈ 133 µM).
Consider `c1ccc(NCc2ccc3c(c2)OCCCO3)nc1`, for which the MDR1-MDCK efflux ratio was determined as 0.701; the intrinsic clearance, human liver microsomes amounted to 66.5 mL/min/kg; the intrinsic clearance, rat liver microsomes was 7100 mL/min/kg.
In the case of `CC(=O)NCC1CCN(C(=O)c2ccc(C)nc2)CC1`, the MDR1-MDCK efflux ratio stood at 130; the intrinsic clearance, human liver microsomes is no more than 4.74 mL/min/kg; the intrinsic clearance, rat liver microsomes is no more than 10.7 mL/min/kg; the aqueous solubility was 54 µg/mL (≈ 196 µM).
As to `Cc1nc([C@H]2CC[C@H](CNC(=O)CN3CCC(c4ccccc4)CC3)CC2)ccc1C(N)=O`, the MDR1-MDCK efflux ratio is 14.9; the intrinsic clearance, human liver microsomes was found to be 37.3 mL/min/kg; the intrinsic clearance, rat liver microsomes was 390 mL/min/kg; the aqueous solubility was 70.2 µg/mL (≈ 156 µM).
Taken in the same sequence, the figures for `C[C@@H](CO)Nc1nc(C(F)(F)F)nc2[nH]cnc12` were 6.72, no more than 4.74 mL/min/kg, no more than 10.7 mL/min/kg and 40 µg/mL (≈ 153 µM).
For the compound `CCc1sc(N)nc1-c1ccc(OC)cc1`, the MDR1-MDCK efflux ratio is 0.563; the intrinsic clearance, human liver microsomes worked out at 185 mL/min/kg; the intrinsic clearance, rat liver microsomes came out at 491 mL/min/kg.
Consider `CCOC(=O)c1cccnc1-c1ccc2[nH]ccc2c1`, for which the MDR1-MDCK efflux ratio was determined as 0.599; the intrinsic clearance, human liver microsomes stood at 86.4 mL/min/kg; the intrinsic clearance, rat liver microsomes is 695 mL/min/kg; the aqueous solubility was 36.8 µg/mL (≈ 138 µM).
On to `COc1ccccc1N1CCN(CCNC(=O)c2ccc(F)cc2)CC1`, for which the intrinsic clearance, human liver microsomes is 22 mL/min/kg and the intrinsic clearance, rat liver microsomes came out at 356 mL/min/kg.
On to `O=C(CN1CCCC(c2ccc3cn[nH]c3n2)C1)N1CCCC1` (centres undefined), for which the MDR1-MDCK efflux ratio is 30.2; the intrinsic clearance, human liver microsomes was determined as 9.13 mL/min/kg; the intrinsic clearance, rat liver microsomes was 337 mL/min/kg; the aqueous solubility came to 38 µg/mL (≈ 121 µM).
For `O=C(CCCc1ccc(F)cc1)N1CCN(c2ccccc2)C(=O)C1`, the MDR1-MDCK efflux ratio worked out at 0.896; the intrinsic clearance, human liver microsomes is no more than 4.74 mL/min/kg; the intrinsic clearance, rat liver microsomes came to 176 mL/min/kg; the aqueous solubility was found to be 49.2 µg/mL (≈ 145 µM).
Consider `CCc1cc(NS(C)(=O)=O)n(C)n1`, for which the MDR1-MDCK efflux ratio was found to be 2.54; the intrinsic clearance, human liver microsomes is no more than 4.74 mL/min/kg; the intrinsic clearance, rat liver microsomes was no more than 10.7 mL/min/kg.
The matching figures for `Cc1cc(C)cc(OCCN(C)C(=O)NCCS(=O)(=O)N(C)C)c1`: 12.1, 37.4 mL/min/kg and 1090 mL/min/kg.
For `CCN(CC#N)C(=O)c1nn(-c2ccc(F)cc2)c2c1CCCC2`, the MDR1-MDCK efflux ratio turned out to be 0.712; the intrinsic clearance, human liver microsomes amounted to 50.2 mL/min/kg; the intrinsic clearance, rat liver microsomes was 397 mL/min/kg; the aqueous solubility was determined as 40.5 µg/mL (≈ 124 µM).
For `O=C(C1CCC(O)CC1)N1CCCN(c2ccc(F)cc2)CC1` (centres undefined), the MDR1-MDCK efflux ratio came to 4.68; the intrinsic clearance, human liver microsomes came out at 11.9 mL/min/kg; the intrinsic clearance, rat liver microsomes is 206 mL/min/kg; the aqueous solubility came to 80.7 µg/mL (≈ 252 µM).
In the case of `CCc1c(-c2ccccc2)[n+]([O-])c2c([n+]1[O-])CCCCC2`, the MDR1-MDCK efflux ratio came out at 2.95; the intrinsic clearance, human liver microsomes is 8.95 mL/min/kg; the intrinsic clearance, rat liver microsomes was found to be 43.4 mL/min/kg.
For `CN(C)Cc1ccnc(NC(=O)c2ccsc2)c1`, the intrinsic clearance, human liver microsomes stood at 6.67 mL/min/kg and the intrinsic clearance, rat liver microsomes came to 397 mL/min/kg.
Turning to `COc1ccc(C(=O)c2ccc(Cl)cc2)c(OC)c1`, the MDR1-MDCK efflux ratio is 0.522; the intrinsic clearance, human liver microsomes came out at 87.4 mL/min/kg; the intrinsic clearance, rat liver microsomes amounted to 1750 mL/min/kg.
Consider `Cc1ccccc1C(=O)N1CCC(O)(Cn2ccnc2C)CC1`, for which the MDR1-MDCK efflux ratio was determined as 4.93; the intrinsic clearance, human liver microsomes is 4.92 mL/min/kg; the intrinsic clearance, rat liver microsomes came to 100 mL/min/kg.
For the compound `Cc1noc(-c2ccc(NC(=O)Cc3ccccc3)cc2)n1`, the MDR1-MDCK efflux ratio worked out at 0.573; the intrinsic clearance, human liver microsomes came out at 7.82 mL/min/kg; the intrinsic clearance, rat liver microsomes was 57.1 mL/min/kg; the aqueous solubility came out at 7.94 µg/mL (≈ 27.1 µM).
Consider `CN(Cc1cccc(C#N)c1)Cc1ccccc1C#N`, for which the MDR1-MDCK efflux ratio worked out at 0.591; the intrinsic clearance, human liver microsomes was found to be 283 mL/min/kg; the intrinsic clearance, rat liver microsomes was determined as 4220 mL/min/kg; the aqueous solubility came out at 29.4 µg/mL (≈ 112 µM).
The matching figures for `CNC(=O)c1sc2ncccc2c1[C@H]1CC[C@H](CNC(=O)CCc2ccccc2)CC1`: 33.7, 206 mL/min/kg, 1460 mL/min/kg and 61.7 µg/mL (≈ 142 µM).
On to `CCN1CCN(c2ccc(NC(=O)c3ncoc3-c3ccc4ccccc4c3)cc2)CC1`, for which the intrinsic clearance, human liver microsomes came to 19.1 mL/min/kg; the intrinsic clearance, rat liver microsomes was determined as 296 mL/min/kg; the aqueous solubility came out at 1.02 µg/mL (≈ 2.39 µM).
As to `O=C(Nc1ccc(Cl)cn1)C1(c2cccc(Cl)c2)CC1`, the MDR1-MDCK efflux ratio worked out at 0.574 and the aqueous solubility was determined as 0.33 µg/mL (≈ 1.07 µM).

What is called aqueous solubility is how much of the substance goes into solution per volume. Lower therefore signals a poorly soluble substance.
